Measured values from publication PMC11078216, “Discovery of potent and selective activity-based probes (ABPs) for the deubiquitinating enzyme USP30” (RSC Chemical Biology, 2024).
Each block holds one compound with its values, some of them ahead of it.

Columns and labels:
Assay in all cases: ABPP chemical proteomics (LC-MS/MS) in HEK293T cells
Format in all cases: cell-based
[1] = target: T1, GET4 (Homo sapiens, UniProt Q7L5D6); conditions: IMP-2587 labelling vs DMSO, 30 nM, 10 min, HEK293T (Table S2, Fig.5a)
T1 construct: endogenous in cells; host or cells: HEK293T
Outline: (§1)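 Proteome-wide selectivity was profiled by competitive ABPP. Cells received […] and then activity-based probe for 1 h at 37 °C. Lysates were ligated to biotin capture tags, affinity-enriched and analysed by mass spectrometry.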

[2] = tested on: H2AFV;H2AFZ; conditions: IMP-2587 labelling vs DMSO, 30 nM, 10 min, HEK293T (Table S2, Fig.5a)
Outline: as §1

[3] = target: T2, HMGCS1 (Homo sapiens, UniProt Q01581); conditions: IMP-2587 labelling vs DMSO, 30 nM, 10 min, HEK293T (Table S2, Fig.5a)
T2 construct: endogenous in cells; host or cells: HEK293T
Outline: as §1

[4] = target: T3, NPM3 (Homo sapiens, UniProt O75607); conditions: IMP-2587 labelling vs DMSO, 30 nM, 10 min, HEK293T (Table S2, Fig.5a)
T3 construct: endogenous in cells; host or cells: HEK293T
Outline: as §1

[5] = target: T4, RPL10 (Homo sapiens, UniProt P27635); conditions: compound 1 out-competition with IMP-2587 labelling, HEK293T (Table S3, Fig.5b)
T4 construct: endogenous in cells; host or cells: HEK293T
Outline: as §1

[6] = target: T5, ACTG1 (Homo sapiens, UniProt P63261); conditions: compound 1 out-competition with IMP-2587 labelling, HEK293T (Table S3, Fig.5b)
T5 construct: endogenous in cells; host or cells: HEK293T
Outline: as §1

[7] = target: T6, MDC1 (Homo sapiens, UniProt Q14676); conditions: IMP-2586 labelling vs DMSO, 30 nM, 10 min, HEK293T (Table S4, Fig.5c)
T6 construct: endogenous in cells; host or cells: HEK293T
Outline: as §1

[8] = target: T7, CFAP20 (Homo sapiens, UniProt Q9Y6A4); conditions: IMP-2586 labelling vs DMSO, 30 nM, 10 min, HEK293T (Table S4, Fig.5c)
T7 construct: endogenous in cells; host or cells: HEK293T
Outline: as §1

[9] = target: T8, HSDL1 (Homo sapiens, UniProt Q3SXM5); conditions: IMP-2586 labelling vs DMSO, 30 nM, 10 min, HEK293T (Table S4, Fig.5c)
T8 construct: endogenous in cells; host or cells: HEK293T
Outline: as §1

[10] = target: T9, AURKAIP1 (Homo sapiens, UniProt Q9NWT8); conditions: IMP-2586 labelling vs DMSO, 30 nM, 10 min, HEK293T (Table S4, Fig.5c)
T9 construct: endogenous in cells; host or cells: HEK293T
Outline: as §1

[11] = target: T10, ASAH1 (Homo sapiens, UniProt Q13510); conditions: IMP-2586 labelling vs DMSO, 30 nM, 10 min, HEK293T (Table S4, Fig.5c)
T10 construct: endogenous in cells; host or cells: HEK293T
Outline: as §1

[12] = target: T11, SFT2D3 (Homo sapiens, UniProt Q587I9); conditions: IMP-2586 labelling vs DMSO, 30 nM, 10 min, HEK293T (Table S4, Fig.5c)
T11 construct: endogenous in cells; host or cells: HEK293T
Outline: as §1

[13] = target: T12, TMEM263 (Homo sapiens, UniProt Q8WUH6); conditions: IMP-2586 labelling vs DMSO, 30 nM, 10 min, HEK293T (Table S4, Fig.5c)
T12 construct: endogenous in cells; host or cells: HEK293T
Outline: as §1

[14] = target: T13, LUC7L3 (Homo sapiens, UniProt O95232); conditions: compound 3 out-competition with IMP-2586 labelling, HEK293T (Table S5, Fig.5d)
T13 construct: endogenous in cells; host or cells: HEK293T
Outline: as §1

[15] = target: T14, CLPTM1 (Homo sapiens, UniProt O96005); conditions: compound 3 out-competition with IMP-2586 labelling, HEK293T (Table S5, Fig.5d)
T14 construct: endogenous in cells; host or cells: HEK293T
Outline: as §1

T13 sequence (O95232 whole entry): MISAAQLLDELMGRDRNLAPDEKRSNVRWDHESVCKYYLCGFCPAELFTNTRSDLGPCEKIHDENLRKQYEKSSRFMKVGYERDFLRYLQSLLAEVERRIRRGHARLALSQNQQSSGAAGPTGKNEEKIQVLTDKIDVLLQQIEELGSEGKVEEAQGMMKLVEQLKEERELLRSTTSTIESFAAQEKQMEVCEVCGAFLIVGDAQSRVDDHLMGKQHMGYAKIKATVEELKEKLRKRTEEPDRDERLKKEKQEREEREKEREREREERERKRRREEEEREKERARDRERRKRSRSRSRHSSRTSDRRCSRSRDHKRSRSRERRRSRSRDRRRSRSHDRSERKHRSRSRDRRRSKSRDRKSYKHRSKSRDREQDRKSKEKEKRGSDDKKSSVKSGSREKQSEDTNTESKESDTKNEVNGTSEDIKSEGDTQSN
T8 sequence (Q3SXM5 whole entry): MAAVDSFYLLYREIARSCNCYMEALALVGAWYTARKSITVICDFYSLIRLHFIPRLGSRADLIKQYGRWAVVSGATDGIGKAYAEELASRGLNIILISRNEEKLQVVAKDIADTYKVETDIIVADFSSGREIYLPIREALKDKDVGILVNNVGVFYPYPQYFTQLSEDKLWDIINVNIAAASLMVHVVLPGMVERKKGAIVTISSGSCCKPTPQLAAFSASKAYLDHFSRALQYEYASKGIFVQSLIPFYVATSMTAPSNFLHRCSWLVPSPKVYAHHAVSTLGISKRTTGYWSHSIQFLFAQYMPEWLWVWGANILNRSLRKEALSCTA
T7 sequence (Q9Y6A4 whole entry): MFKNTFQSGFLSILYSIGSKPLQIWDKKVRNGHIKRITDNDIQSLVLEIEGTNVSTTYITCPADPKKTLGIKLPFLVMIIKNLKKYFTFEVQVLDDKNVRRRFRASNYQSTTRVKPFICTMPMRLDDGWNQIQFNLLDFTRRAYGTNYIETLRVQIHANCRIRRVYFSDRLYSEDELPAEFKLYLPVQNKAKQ
T10 sequence (Q13510 22-395): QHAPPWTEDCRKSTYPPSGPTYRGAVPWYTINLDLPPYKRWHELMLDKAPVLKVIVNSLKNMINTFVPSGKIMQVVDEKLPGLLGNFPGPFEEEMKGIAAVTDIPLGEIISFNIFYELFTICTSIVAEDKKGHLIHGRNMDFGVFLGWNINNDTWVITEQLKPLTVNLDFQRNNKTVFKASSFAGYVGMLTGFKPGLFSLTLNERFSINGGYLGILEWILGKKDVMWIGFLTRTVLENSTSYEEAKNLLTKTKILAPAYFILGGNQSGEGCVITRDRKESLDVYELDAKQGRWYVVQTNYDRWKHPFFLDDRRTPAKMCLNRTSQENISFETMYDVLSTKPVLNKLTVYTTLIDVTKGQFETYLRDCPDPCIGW
T14 sequence (O96005 whole entry): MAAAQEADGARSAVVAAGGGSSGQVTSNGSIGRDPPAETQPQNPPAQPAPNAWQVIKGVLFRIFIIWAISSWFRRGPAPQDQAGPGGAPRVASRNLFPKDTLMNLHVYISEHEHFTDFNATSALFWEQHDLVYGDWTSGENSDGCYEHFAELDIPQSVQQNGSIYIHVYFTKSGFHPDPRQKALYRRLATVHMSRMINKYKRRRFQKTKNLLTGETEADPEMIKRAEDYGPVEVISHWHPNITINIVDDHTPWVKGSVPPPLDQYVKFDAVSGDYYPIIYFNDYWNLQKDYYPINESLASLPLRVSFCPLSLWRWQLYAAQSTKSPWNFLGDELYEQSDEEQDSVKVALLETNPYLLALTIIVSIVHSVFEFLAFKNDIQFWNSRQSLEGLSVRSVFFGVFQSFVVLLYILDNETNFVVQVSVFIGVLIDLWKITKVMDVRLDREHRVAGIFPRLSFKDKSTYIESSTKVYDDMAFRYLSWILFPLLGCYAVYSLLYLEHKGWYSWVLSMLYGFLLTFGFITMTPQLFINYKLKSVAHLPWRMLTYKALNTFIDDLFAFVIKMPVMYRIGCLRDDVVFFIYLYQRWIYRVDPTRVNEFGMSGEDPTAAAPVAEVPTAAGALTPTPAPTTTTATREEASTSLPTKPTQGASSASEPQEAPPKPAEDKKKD
T11 sequence (Q587I9 whole entry): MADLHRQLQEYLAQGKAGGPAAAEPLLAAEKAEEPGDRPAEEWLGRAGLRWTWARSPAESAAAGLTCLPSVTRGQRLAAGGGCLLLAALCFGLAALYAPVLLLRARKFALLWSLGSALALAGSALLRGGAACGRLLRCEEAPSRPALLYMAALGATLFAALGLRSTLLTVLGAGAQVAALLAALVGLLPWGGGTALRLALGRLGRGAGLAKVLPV
T3 sequence (O75607 whole entry): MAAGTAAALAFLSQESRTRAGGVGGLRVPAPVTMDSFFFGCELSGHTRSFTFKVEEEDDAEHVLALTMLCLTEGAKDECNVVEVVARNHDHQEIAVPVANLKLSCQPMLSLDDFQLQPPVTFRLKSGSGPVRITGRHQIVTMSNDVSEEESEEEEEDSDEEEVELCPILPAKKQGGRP
T6 sequence (Q14676 whole entry): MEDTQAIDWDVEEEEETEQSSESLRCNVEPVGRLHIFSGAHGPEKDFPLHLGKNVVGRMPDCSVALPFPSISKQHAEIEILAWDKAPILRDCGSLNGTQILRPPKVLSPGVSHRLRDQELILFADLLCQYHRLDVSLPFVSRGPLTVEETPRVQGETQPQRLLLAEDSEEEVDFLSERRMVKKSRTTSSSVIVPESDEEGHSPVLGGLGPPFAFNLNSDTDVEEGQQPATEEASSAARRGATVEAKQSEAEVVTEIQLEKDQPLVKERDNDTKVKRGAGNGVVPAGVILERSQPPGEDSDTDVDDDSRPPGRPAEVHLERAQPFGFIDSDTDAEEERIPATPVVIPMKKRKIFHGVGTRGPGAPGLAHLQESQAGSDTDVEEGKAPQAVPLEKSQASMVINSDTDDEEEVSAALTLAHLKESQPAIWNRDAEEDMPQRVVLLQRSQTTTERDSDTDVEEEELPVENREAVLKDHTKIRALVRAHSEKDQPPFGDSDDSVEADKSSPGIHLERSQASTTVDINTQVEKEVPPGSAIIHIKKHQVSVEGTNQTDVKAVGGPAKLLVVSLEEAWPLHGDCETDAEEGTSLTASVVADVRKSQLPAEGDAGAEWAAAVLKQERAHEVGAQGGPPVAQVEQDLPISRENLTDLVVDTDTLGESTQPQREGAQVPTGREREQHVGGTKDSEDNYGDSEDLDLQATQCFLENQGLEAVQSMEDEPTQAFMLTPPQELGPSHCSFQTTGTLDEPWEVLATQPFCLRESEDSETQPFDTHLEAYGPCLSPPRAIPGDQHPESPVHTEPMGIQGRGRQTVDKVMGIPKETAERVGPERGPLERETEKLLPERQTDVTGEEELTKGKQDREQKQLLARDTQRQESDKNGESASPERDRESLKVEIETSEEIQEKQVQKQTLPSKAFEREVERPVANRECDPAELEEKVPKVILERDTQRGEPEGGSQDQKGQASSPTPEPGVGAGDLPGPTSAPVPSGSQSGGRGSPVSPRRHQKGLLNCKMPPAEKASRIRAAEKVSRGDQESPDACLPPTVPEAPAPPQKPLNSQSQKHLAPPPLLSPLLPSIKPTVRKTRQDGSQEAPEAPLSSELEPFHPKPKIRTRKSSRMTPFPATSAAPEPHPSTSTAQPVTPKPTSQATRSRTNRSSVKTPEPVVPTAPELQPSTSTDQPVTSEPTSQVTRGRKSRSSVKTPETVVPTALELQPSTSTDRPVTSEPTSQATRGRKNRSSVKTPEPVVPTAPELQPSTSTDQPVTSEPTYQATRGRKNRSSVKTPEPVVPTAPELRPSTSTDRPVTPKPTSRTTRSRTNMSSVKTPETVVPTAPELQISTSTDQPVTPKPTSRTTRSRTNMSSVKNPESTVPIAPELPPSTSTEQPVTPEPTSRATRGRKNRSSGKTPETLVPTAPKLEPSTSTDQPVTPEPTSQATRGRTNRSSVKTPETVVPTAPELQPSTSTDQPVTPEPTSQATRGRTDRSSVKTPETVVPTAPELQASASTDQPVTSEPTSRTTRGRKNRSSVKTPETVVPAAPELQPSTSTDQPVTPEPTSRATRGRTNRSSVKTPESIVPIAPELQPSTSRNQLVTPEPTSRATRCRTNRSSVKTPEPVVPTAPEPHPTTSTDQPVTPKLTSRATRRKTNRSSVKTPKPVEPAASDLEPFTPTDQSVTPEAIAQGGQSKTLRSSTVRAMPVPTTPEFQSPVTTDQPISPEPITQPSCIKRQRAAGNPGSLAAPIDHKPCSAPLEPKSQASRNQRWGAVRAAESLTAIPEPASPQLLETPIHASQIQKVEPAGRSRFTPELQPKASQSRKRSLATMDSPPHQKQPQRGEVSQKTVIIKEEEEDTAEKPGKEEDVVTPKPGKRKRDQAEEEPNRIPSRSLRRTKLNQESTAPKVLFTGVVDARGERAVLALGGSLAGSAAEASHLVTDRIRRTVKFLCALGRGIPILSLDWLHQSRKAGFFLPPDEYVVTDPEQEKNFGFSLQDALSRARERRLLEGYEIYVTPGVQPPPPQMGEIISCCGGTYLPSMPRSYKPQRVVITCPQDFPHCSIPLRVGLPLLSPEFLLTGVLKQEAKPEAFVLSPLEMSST
T2 sequence (Q01581 whole entry): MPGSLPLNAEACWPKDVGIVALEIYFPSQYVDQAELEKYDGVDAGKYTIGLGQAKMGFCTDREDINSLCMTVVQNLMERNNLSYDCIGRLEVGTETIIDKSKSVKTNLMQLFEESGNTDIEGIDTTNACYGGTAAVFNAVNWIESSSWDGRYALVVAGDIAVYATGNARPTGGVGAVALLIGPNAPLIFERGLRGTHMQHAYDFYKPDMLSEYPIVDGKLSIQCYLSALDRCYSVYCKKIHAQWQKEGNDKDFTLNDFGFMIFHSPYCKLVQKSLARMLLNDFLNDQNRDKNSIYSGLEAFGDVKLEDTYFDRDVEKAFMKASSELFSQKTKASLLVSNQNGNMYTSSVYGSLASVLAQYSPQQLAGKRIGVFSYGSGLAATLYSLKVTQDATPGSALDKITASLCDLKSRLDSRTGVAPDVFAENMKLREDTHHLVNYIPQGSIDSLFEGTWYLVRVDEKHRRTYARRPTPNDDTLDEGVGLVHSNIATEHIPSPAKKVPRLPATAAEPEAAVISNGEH

SMILES: C#Cc1cccc(-c2cc(NC(=O)CC3CCN(C#N)C3)on2)c1 (stereo not drawn) [IMP-2587]
- Difference (log2 fold change of enrichment) [1]: 0.76
- Difference (log2 fold change of enrichment) [2]: 0.65
- Difference (log2 fold change of enrichment) [3]: 0.75
- Difference (log2 fold change of enrichment) [4]: 0.89

- Difference (log2 fold change of enrichment) [5]: -0.52
- Difference (log2 fold change of enrichment) [6]: -0.57
SMILES: N#CN1CC[C@H](CC(=O)Nc2cc(-c3cccc(Cl)c3)no2)C1 [compound 1, reference compound]

SMILES: N#CN1CC[C@@H](NC(=O)c2cc(-c3ccccc3Oc3ccc(N=[N+]=[N-])cc3)n[nH]2)C1 [IMP-2586]
- Difference (log2 fold change of enrichment) [7]: 0.38
- Difference (log2 fold change of enrichment) [8]: -0.41
- Difference (log2 fold change of enrichment) [9]: 1.22
- Difference (log2 fold change of enrichment) [10]: 0.81
- Difference (log2 fold change of enrichment) [11]: 1.08
- Difference (log2 fold change of enrichment) [12]: -1.51
- Difference (log2 fold change of enrichment) [13]: -0.44

- Difference (log2 fold change of enrichment) [14]: -0.51
- Difference (log2 fold change of enrichment) [15]: -1.18
SMILES: N#CN1CC[C@@H](NC(=O)c2cc(-c3ccccc3Oc3ccccc3)n[nH]2)C1 [compound 3, reference compound]
